This note sets out measurements from PubChem BioAssay AID328 (DTP/NCI, 2004).

This test relates to BDF1 mice, P388 leukemia ip, median survival T/C. Nature of the test: NCI In Vivo Anticancer Drug Screen. Data for tumor model P388 Leukemia (intraperitoneal) in B6D2F1 (BDF1) mice. Particulars: endpoint: median survival time, higher = longer survival. The method in brief: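 T/C = treated-group survival ÷ vehicle-control survival; tumour transplanted into mice before dosing.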

The mark [1] stands for this setting: dose: 25.0 mg/kg/injection, schedule: Q01DX009 (ip), vehicle: Klucel (hydroxypropylcellulose) (HPC).
[2] abbreviates: dose: 50.0 mg/kg/injection, schedule: Q01DX009 (ip), vehicle: Klucel (hydroxypropylcellulose) (HPC).
Setting [3] is: dose: 100.0 mg/kg/injection, schedule: Q01DX009 (ip), vehicle: Klucel (hydroxypropylcellulose) (HPC).
Where [4] appears, read: dose: 100.0 mg/kg/injection, schedule: Q04DX003 (ip), vehicle: Klucel (hydroxypropylcellulose) (HPC).
Where [5] appears, read: dose: 200.0 mg/kg/injection, schedule: Q01DX009 (ip), vehicle: Klucel (hydroxypropylcellulose) (HPC).
[6] abbreviates: dose: 200.0 mg/kg/injection, schedule: Q04DX003 (ip), vehicle: Klucel (hydroxypropylcellulose) (HPC).
[7] abbreviates: dose: 400.0 mg/kg/injection, schedule: Q04DX003 (ip), vehicle: Klucel (hydroxypropylcellulose) (HPC).
The mark [8] stands for this setting: dose: 100.0 mg/kg/injection, schedule: Q01DX009 (ip), vehicle: saline with Tween-80.
The mark [9] stands for this setting: dose: 200.0 mg/kg/injection, schedule: Q01DX009 (ip), vehicle: saline with Tween-80.
The mark [10] stands for this setting: dose: 50.0 mg/kg/injection, schedule: Q04DX003 (ip), vehicle: saline with Tween-80.
Setting [11] is: dose: 100.0 mg/kg/injection, schedule: Q04DX003 (ip), vehicle: saline with Tween-80.
Where [12] appears, read: dose: 200.0 mg/kg/injection, schedule: Q04DX003 (ip), vehicle: saline with Tween-80.
[13] abbreviates: dose: 400.0 mg/kg/injection, schedule: Q04DX003 (ip), vehicle: saline with Tween-80.
Setting [14] is: dose: 50.0 mg/kg/injection, schedule: Q04DX003 (ip), vehicle: Klucel (hydroxypropylcellulose) (HPC).

Structures are written as SMILES. “And” between values parts separate entries of the source, which are not always exact repeats. Equal values may be shown once. Inconclusive results and toxic doses are left out. Positions of bridges follow the written chain, without caps; N, C: chain ends. Non-standard residues stand in square brackets, D forms with d. Residues, ends and D or L forms follow the SMILES beside them. Chains are numbered I, II in the order given. *: point of attachment. Quinoxaline2carbonyl = O=C(c1cnc2ccccc2n1)*; NMeV = CN[CH](C(=O)O)C(C)C; NMeC = CN[CH](CS)C(=O)O

`C/C(=N\NC(=S)N1CCC(O)CC1)c1ccccn1`: the T/C was 104 % of control (dose: 6.25 mg/kg/injection, schedule: Q04DX003 (ip), vehicle: saline with Tween-80); 108 % of control (dose: 12.5 mg/kg/injection, schedule: Q04DX003 (ip), vehicle: saline with Tween-80); 113 % of control (dose: 25.0 mg/kg/injection, schedule: Q04DX003 (ip), vehicle: saline with Tween-80).
Turning to `CC1NC(=O)C(NC(=O)c2cnc3ccccc3n2)COC(=O)C(C(C)C)N(C)C(=O)C2CSSCC(C(=O)N(C)C(C(C)C)C(=O)OCC(NC(=O)c3cnc4ccccc4n3)C(=O)NC(C)C(=O)N2C)N(C)C1=O` (stereo not drawn) (I: Quinoxaline2carbonyl-SA[NMeC][NMeV] / II: Quinoxaline2carbonyl-SA[NMeC][NMeV]; ester I:1-II:C, I:C-II:1; disulfide I:3-II:3; configuration not given here), the T/C by setting is: (dose: 11.0 micrograms/kg/injection, schedule: Q01DX009 (ip), vehicle: saline) 124 % of control; (dose: 22.5 micrograms/kg/injection, schedule: Q01DX009 (ip), vehicle: saline) 115 % of control; (dose: 45.0 micrograms/kg/injection, schedule: Q01DX009 (ip), vehicle: saline) 113 % of control; (dose: 90.0 micrograms/kg/injection, schedule: Q01DX009 (ip), vehicle: saline) 200 % of control.
On to `CC1CCCC/C1=N/NC(N)=O` (stereo not drawn), for which the T/C runs as follows: (dose: 12.5 mg/kg/injection, schedule: Q01DX009 (ip), vehicle: Klucel (hydroxypropylcellulose) (HPC)) 95 % of control; under setting [1], 95 % of control; under setting [2], 91 % of control; under setting [3], 104 % of control; under setting [4], 100 % of control; under setting [5], 86 % of control. The T/C reads like this: under setting [6], 95 % of control; under setting [7], 95 % of control.
In the case of `C=C1C=C(C)CC(C)(C)C1` (tested in a mixture with another compound), the T/C by setting is: (dose: 100.0 mg/kg/injection, schedule: Q01DX009 (ip), vehicle: saline sonified) 100 % of control; (dose: 200.0 mg/kg/injection, schedule: Q01DX009 (ip), vehicle: saline sonified) 100 % of control; (dose: 400.0 mg/kg/injection, schedule: Q01DX009 (ip), vehicle: saline sonified) 100 % of control.
As to `CCOC(=O)C(O)c1cccc(OC)c1` (stereo not drawn), the T/C is 100 % of control under setting [8]; 118 % of control (dose: 100.0 mg/kg/injection, schedule: Q04DX003 (ip), vehicle: saline sonified); 100 % of control under setting [9]; 100 % of control (dose: 200.0 mg/kg/injection, schedule: Q04DX003 (ip), vehicle: saline sonified); 104 % of control (dose: 400.0 mg/kg/injection, schedule: Q01DX009 (ip), vehicle: saline with Tween-80); 100 % of control (dose: 400.0 mg/kg/injection, schedule: Q04DX003 (ip), vehicle: saline sonified).
Take `CC(C)n1c(=S)[nH]c2ccccc2c1=O`: the T/C reads like this: (dose: 100.0 mg/kg/injection, schedule: Q01DX001 (ip), vehicle: Klucel (hydroxypropylcellulose) (HPC)) 100 % of control; (dose: 200.0 mg/kg/injection, schedule: Q01DX001 (ip), vehicle: Klucel (hydroxypropylcellulose) (HPC)) 100 % of control; (dose: 400.0 mg/kg/injection, schedule: Q01DX001 (ip), vehicle: Klucel (hydroxypropylcellulose) (HPC)) 100 % of control.
In the case of `C=CCC1(CC)C(=O)NC(=O)NC1=O`, the T/C was 91 % of control under setting [10], 91 % of control under setting [11] and 91 % of control under setting [12].
Consider `CCCCCCCCCCCCCCSC1CC(=O)OC1=O` (stereo not drawn), for which the T/C reads like this: (dose: 50.0 mg/kg/injection, schedule: Q01DX009 (ip), vehicle: saline with Tween-80) 98 % of control; under setting [8], 91 % of control; under setting [9], 96 % of control.
For the compound `CC1CC=CCC1COC(OCC1CC=CCC1C)C1CC=CCC1C` (stereo not drawn), the T/C is, setting by setting: (dose: 100.0 mg/kg/injection, schedule: Q04DX003 (ip), vehicle: other) 104 % of control; (dose: 200.0 mg/kg/injection, schedule: Q04DX003 (ip), vehicle: other) 114 % of control; (dose: 400.0 mg/kg/injection, schedule: Q04DX003 (ip), vehicle: other) 119 % of control.
As for `COc1ccc(CSc2ncnc3nc[nH]c23)cc1`, the T/C was 95 % of control under setting [8], 100 % of control under setting [11], 100 % of control under setting [12] and 87 % of control under setting [13].
As to `Cc1c(C#N)c2n(c1C)CCN2`, the T/C runs as follows: (dose: 6.0 mg/kg/injection, schedule: Q01DX009 (ip), vehicle: Klucel (hydroxypropylcellulose) (HPC)) 104 % of control; (dose: 12.0 mg/kg/injection, schedule: Q01DX009 (ip), vehicle: Klucel (hydroxypropylcellulose) (HPC)) 86 % of control; under setting [1], 92 % of control and 100 % of control; (dose: 25.0 mg/kg/injection, schedule: Q04DX003 (ip), vehicle: Klucel (hydroxypropylcellulose) (HPC)) 95 % of control; under setting [14], 100 % of control; under setting [4], 108 % of control.
As for `CC1C[N-]CC(C)C1.CC1C[N-]CC(C)C1.[Cl][Pt+2]([Cl])([Cl])[Cl]` (stereo not drawn), the T/C reads like this: (dose: 1.56 mg/kg/injection, schedule: Q01DX009 (ip), vehicle: saline) 95 % of control; (dose: 3.12 mg/kg/injection, schedule: Q01DX009 (ip), vehicle: saline) 114 % of control; (dose: 6.25 mg/kg/injection, schedule: Q01DX009 (ip), vehicle: saline) 93 % of control; (dose: 12.5 mg/kg/injection, schedule: Q01DX009 (ip), vehicle: saline) 114 % of control; (dose: 50.0 mg/kg/injection, schedule: Q01DX009 (ip), vehicle: saline) 107 % of control.
In the case of `CCOC(=O)Cn1cnc2cc(Cl)c([N+](=O)[O-])cc2c1=O`, the T/C is 96 % of control under setting [14], 104 % of control under setting [4], 102 % of control under setting [6] and 109 % of control under setting [7].
Consider `C=CC1CN2CCC1CC2C(O)c1ccnc2ccccc12` (stereo not drawn), for which the T/C runs as follows: under setting [10], 102 % of control; under setting [11], 88 % of control; under setting [12], 107 % of control.
As for `CCN(CC)CCCC(C)NS(=O)(=O)c1cccc2c(N(C)C)cccc12` (stereo not drawn), the T/C is 97 % of control (dose: 6.25 mg/kg/injection, schedule: Q04DX003 (ip), vehicle: water); 108 % of control (dose: 12.5 mg/kg/injection, schedule: Q04DX003 (ip), vehicle: water); 118 % of control (dose: 25.0 mg/kg/injection, schedule: Q04DX003 (ip), vehicle: water); 118 % of control (dose: 50.0 mg/kg/injection, schedule: Q04DX003 (ip), vehicle: water); 115 % of control (dose: 100.0 mg/kg/injection, schedule: Q04DX003 (ip), vehicle: water).
Turning to `CC(C)=NNC(=O)C1CCN1C(c1ccccc1)c1ccccc1` (stereo not drawn), the T/C (dose: 50.0 mg/kg/injection, schedule: Q01DX001 (ip), vehicle: saline with Tween-80) was 117 % of control and the T/C (dose: 100.0 mg/kg/injection, schedule: Q01DX001 (ip), vehicle: saline with Tween-80) was 102 % of control.
For `N#CC(/C=C/c1ccccc1)Nc1ccccc1` (stereo not drawn), the T/C under setting [11] was 104 % of control, the T/C under setting [12] was 100 % of control and the T/C under setting [13] was 100 % of control.
Regarding `C=C(C)C12OC3(c4ccccc4)OC1C1C4OC4(CO)C(O)C4(O)C(=O)C(C)=CC4C1(O3)C(C)C2OC(=O)/C=C/C=C/CCCCC` (stereo not drawn), the T/C was 107 % of control (dose: 6.3 micrograms/kg/injection, schedule: Q## X009 (ip), vehicle: saline + alcohol); 103 % of control (dose: 12.5 micrograms/kg/injection, schedule: Q## X009 (ip), vehicle: saline + alcohol); 103 % of control (dose: 25.0 micrograms/kg/injection, schedule: Q## X009 (ip), vehicle: saline + alcohol); 106 % of control (dose: 200.0 micrograms/kg/injection, schedule: Q## X009 (ip), vehicle: saline + alcohol).
Regarding `C[C@@H]1C[C@H]2C(=CC1=O)CC[C@@H]1[C@@H]2CC[C@@]2(C)[C@H]1CC[C@]2(C)O`, the T/C by setting is: under setting [2], 95 % of control; under setting [14], 91 % of control; under setting [3], 87 % of control; under setting [4], 91 % of control and 103 % of control; under setting [5], 108 % of control; under setting [6], 96 % of control and 100 % of control.
